Key:
Test in all cases: Broth dilution antifungal susceptibility testing, MIC
Type in all cases: cell-based
Penicillium spp. = Penicillium spp. strain DM 2006 1285b
Description: (§1) Broth Dilution Antifungal Susceptibility Testing
(§2) The sensitivity of relevant fungal strains to the peptides was determined using Clinical Laboratory Standard Institute (CLSI; formerly NCCLS) Approved Standards. Fungal susceptibility was tested using “Reference Method for Broth Dilution Antifungal Susceptibility Testing of Filamentous Fungi; Approved Standard M38-P”, and yeast susceptibility was tested using “Reference Method for Broth Dilution Antifungal Susceptibility Testing of Yeasts; Approved Standard—Second Edition M27-A”.

Fusarium spp. = Fusarium spp. strain DM 2006 1133
Description: as §1, §2

[1] = test system: Scopulariopsis brevicaulis; details: Scopulariopsis brevicaulis strain DM 2006 1025
Description: as §1, §2

Fusarium solani = Fusarium solani strain NCPF2877
Description: as §1, §2

Alternaria spp. = Alternaria spp. strain DM 2006 1218a
Description: as §1, §2

| Substance | MIC (Penicillium spp.) | MIC (Fusarium spp.) | MIC [1] | MIC (Fusarium solani) | MIC (Alternaria spp.) |
| --- | --- | --- | --- | --- | --- |
| Poly-L-Arginine (MW 5-15 kDa) [NP121] | 15.6 (μg/ml) | 156 (μg/ml) | 3.9 (μg/ml) | 7.8 (μg/ml) | 13.2 (μg/ml) |
| Poly-L-Lysine (MW 10-20 kDa) [NP108] | 31.2 (μg/ml) | 125 (μg/ml) | 3.9 (μg/ml) | 256 (μg/ml) | 62.5 (μg/ml) |

Source: US9169290B2, “Peptides and their use” (priority 2007, dated 2015)
